Assay: xn = mol fraction of the nth substance listed, in the solute-free solvent

Cc1ncc(C[n+]2csc(CCO)c2C)c(N)n1.O=[N+]([O-])[O-] + O + CO
solubility (g/100 g solution)
Settings	x2 = 0.1	x2 = 0.2	x2 = 0.3	x2 = 0.4	x2 = 0.5	x2 = 0.6	x2 = 0.7	x2 = 0.8	x2 = 0.9
278.15 K	0.197	0.323	0.483	0.678	0.884	1.03	1.17	1.18	1.2
283.15 K	0.221	0.371	0.566	0.801	1.05	1.24	1.41	1.43	1.44
288.15 K	0.273	0.429	0.66	0.918	1.24	1.47	1.67	1.68	1.7
293.15 K	0.35	0.52	0.79	1.08	1.47	1.77	2.02	2.04	2.08
298.15 K	0.422	0.636	0.951	1.34	1.77	2.19	2.5	2.54	2.54
303.15 K	0.518	0.786	1.17	1.64	2.18	2.68	3.06	3.14	3.1
308.15 K	0.657	0.983	1.46	1.96	2.64	3.23	3.75	3.85	3.77
313.15 K	0.812	1.24	1.81	2.52	3.25	3.94	4.6	4.72	4.55

CN1CCN(C2=Nc3cc(Cl)ccc3Nc3ccccc32)CC1 + ClC(Cl)Cl + Cc1ccccc1
solubility (g/100 g solution)
Settings	x2 = 0.07983	x2 = 0.1632	x2 = 0.2513	x2 = 0.3428	x2 = 0.4382	x2 = 0.5396	x2 = 0.6452	x2 = 0.7576	x2 = 0.8755
293.15 K	2.67	2.81	3.33	3.96	4.41	5.51	6.99	8.93	11.8
298.15 K	3.12	3.3	3.67	4.31	4.65	6.29	7.75	10.1	12.8
303.15 K	3.39	3.85	4.08	4.65	5.25	6.98	8.51	10.9	13.3
308.15 K	3.94	4.46	4.87	5.59	6.7	7.99	9.81	12.6	14.4
313.15 K	4.95	5.37	6	6.97	7.69	9.1	11.1	13.9	16.5
318.15 K	5.94	6.56	6.71	8.12	9.11	10.3	12.3	16.2	19.1
323.15 K	6.09	7.9	9.16	10	10.9	12.6	15.7	19.2	22.4

CC(=O)N1CCN(c2ccc(OCC3COC(Cn4ccnc4)(c4ccc(Cl)cc4Cl)O3)cc2)CC1 (stereo not given) + C1COCCO1 + O
solubility (g/100 g solution)
Settings	x2 = 0.02222	x2 = 0.04865	x2 = 0.0806	x2 = 0.12	x2 = 0.1698	x2 = 0.2348	x2 = 0.3231	x2 = 0.45	x2 = 0.648
293.15 K	0.00759	0.0327	0.155	0.537	2.07	6.72	16.6	22.9	18.7
298.15 K	0.00818	0.0386	0.171	0.692	2.58	8.67	18.8	25.4	20.6
303.15 K	0.00845	0.0485	0.197	0.87	3.25	10.9	21.1	27.8	22.6
308.15 K	0.00894	0.0594	0.216	1.04	4.24	13.4	24.4	29.9	24.3
313.15 K	0.00948	0.07	0.25	1.3	5.11	16	27.2	32.5	26.7

Cc1[nH]c(=O)c(C#N)cc1-c1ccncc1 + OCCO + O
solubility (g/100 g solution)
Settings	278.15 K	283.15 K	288.15 K	293.15 K	298.15 K	303.15 K	308.15 K	313.15 K	318.15 K	323.15 K
x2 = 0.03125	0.000882	0.00106	0.00125	0.00147	0.00171	0.00196	0.00222	0.00252	0.00285	0.00321
x2 = 0.06767	0.00131	0.00157	0.00185	0.00216	0.00252	0.00288	0.00326	0.0037	0.00417	0.0047
x2 = 0.1107	0.00189	0.00227	0.00266	0.00311	0.00362	0.00413	0.00467	0.00529	0.00595	0.0067
x2 = 0.1622	0.00264	0.00316	0.0037	0.00432	0.00502	0.00573	0.00647	0.00732	0.00821	0.00925
x2 = 0.225	0.00351	0.0042	0.00493	0.00575	0.00666	0.0076	0.00858	0.00971	0.0109	0.0123
x2 = 0.3034	0.00434	0.00527	0.00628	0.00732	0.00847	0.00967	0.0109	0.0123	0.0138	0.0155
x2 = 0.4038	0.00509	0.00622	0.00737	0.00855	0.00992	0.0116	0.0131	0.0148	0.0165	0.0186
x2 = 0.5373	0.00576	0.00696	0.00818	0.00966	0.0113	0.0129	0.0147	0.0167	0.0186	0.0211
x2 = 0.7232	0.00605	0.0074	0.00868	0.0102	0.0118	0.0135	0.0153	0.0174	0.0195	0.0223

CC(C)=CCCC(C)C1CCC2(C)C3=C(CCC12C)C1(C)CCC(O)C(C)(C)C1CC3 (stereo not given) + CCO + O
solubility (g/100 g solution)
Settings	278.15 K	288.15 K	298.15 K	308.15 K	318.15 K
x2 = 0.01604	3.88e-05	6.47e-05	0.000106	0.000176	0.000263
x2 = 0.1154	0.000122	0.000181	0.000283	0.000357	0.000444
x2 = 0.3147	0.000276	0.000461	0.000699	0.00134	0.00191
x2 = 0.7415	0.245	0.366	0.512	0.754	0.839

CC(N)C(=O)O (stereo not given) + O + CO
solubility (g/100 g solution)
Settings	x2 = 0.1	x2 = 0.2	x2 = 0.3	x2 = 0.4	x2 = 0.5	x2 = 0.6	x2 = 0.7	x2 = 0.8	x2 = 0.9
283.15 K	0.123	0.167	0.315	0.44	0.705	1.21	1.99	3.46	6.52
293.15 K	0.142	0.222	0.377	0.571	0.899	1.53	2.53	4.26	7.7
303.15 K	0.159	0.281	0.434	0.667	1.11	1.88	3.07	5.17	8.92
313.15 K	0.178	0.331	0.492	0.816	1.39	2.35	3.85	6.26	10.4
323.15 K	0.193	0.424	0.627	1.03	1.77	2.95	4.69	7.21	11.9

CC(N)C(=O)O (stereo not given) + O + CC(C)=O
solubility (g/100 g solution)
Settings	x2 = 0.1	x2 = 0.2	x2 = 0.3	x2 = 0.4	x2 = 0.5	x2 = 0.6	x2 = 0.7	x2 = 0.8	x2 = 0.9
283.15 K	0.0237	0.0301	0.047	0.0557	0.0712	0.135	0.382	1.03	3.44
293.15 K	0.0407	0.0463	0.0511	0.0648	0.0791	0.17	0.457	1.34	4.17
303.15 K	0.047	0.053	0.0603	0.0794	0.0969	0.22	0.611	1.73	5.02
313.15 K	0.0547	0.0607	0.0696	0.0949	0.128	0.309	0.794	2.22	6.57
323.15 K	0.0629	0.0786	0.0878	0.138	0.193	0.484	1.14	3.18	8.13

Source: the CheMixHub drug solubility set
